Reference: patent EP2468718A1, “Cabanillasin, a new antifungal compound, produced by entomopathogenic xenorhabdus cabanillasii” (Nosopharm, priority 2010, dated 2012)
Converted amounts (≈) assume the structure as drawn. “And” between values parts separate entries of the source, which are not always exact repeats. Equal values may be shown once. Read-outs that look alike come from different tables or passages of the source.

Assays:
Type in all cases: cell-based
Candida krusei ATCC 6258 = test: Antifungal susceptibility testing, NCCLS M27-A2 broth microdilution (yeasts); details: Pichia kudriavzevii, ATCC6258; for inhibition at 0.09 µg/mL / inhibition at 0.19 µg/mL / inhibition at 0.39 µg/mL / inhibition at 0.78 µg/mL / inhibition at 1.56 µg/mL / inhibition at 3.12 µg/mL / inhibition at 6.25 µg/mL / inhibition at 12.5 µg/mL / inhibition at 25 µg/mL / inhibition at 50 µg/mL: read-out: % of growth inhibition
[1] = test system: Candida Glabrata ATCC 90030; test: as above; details: Nakaseomyces glabratus, ATCC90030; for inhibition at 0.09 µg/mL / inhibition at 0.19 µg/mL / inhibition at 0.39 µg/mL / inhibition at 0.78 µg/mL / inhibition at 1.56 µg/mL / inhibition at 3.12 µg/mL / inhibition at 6.25 µg/mL / inhibition at 12.5 µg/mL / inhibition at 25 µg/mL / inhibition at 50 µg/mL: read-out: % of growth inhibition
[2] = test system: Cryptococcus neoformans clinical strain; test: as above; details: for inhibition at 0.09 µg/mL / inhibition at 0.19 µg/mL / inhibition at 0.39 µg/mL / inhibition at 0.78 µg/mL / inhibition at 1.56 µg/mL / inhibition at 3.12 µg/mL / inhibition at 6.25 µg/mL / inhibition at 12.5 µg/mL / inhibition at 25 µg/mL / inhibition at 50 µg/mL: read-out: % of growth inhibition
[3] = test system: hTERT HME-1 (Human normal mammary epithelium); test: Cytotoxicity test (MTT); details: 48 h exposure, triplicate
Protocol: (§1) One hundred microliters of the cell suspension of PC-3 (Human prostatic carcinoma) or hTERT HME-1 (Human normal mammary epithelium) prepared in RPMI + 10% SVF + 1% glutamine were inoculated into 96-well plates. The inoculating cell number was 3500 cells per well for PC-3 and 7500 cells per well for hTERT HME-1. The microplates were incubated at 37°C for 24h with 5% of CO2. After 24 h of culture, the medium was removed by aspiration and 100 µl of RPMI + 10% SVF + 1% glutamine with 8 concentrations of Cabanillasin (from 0.78 µg/mL to 100 µg/mL) were added to each well. Microplates were incubated at 37°C for 48 h with 5% of CO2. After 48h of culture, the medium was removed by aspiration and 100 µL of RPMI + MTT (0.5 mg/mL) were added to each wells. Microplates were inoculated at 37°C during 150 min. Next, all the medium was removed by inverting and tapping the plate and 100 µL of DMSO were added in each plate. The spectrophotometric absorbance was then measured at 550 nm. The Lethal Dose 50 correspond to DL50 = ((50-(Y2-((Y1-Y2)/(X1-X2))*X2))/ ((Y1-Y2)/(X1-X2))). […] Experiments were done in triplicate.

[4] = test system: PC-3 (Human prostatic carcinoma); test: Cytotoxicity test (MTT); details: 48 h exposure, triplicate
Protocol: as §1

For `CC(=O)NC(=N)NCCCCNC(=N)NCCCCNC(=N)NCCCCNC(=N)NCCCCN` [Cabanillasin], the inhibition at 0.09 µg/mL (Candida krusei ATCC 6258; 24 h incubation) was 0%, the inhibition at 0.09 µg/mL (Candida krusei ATCC 6258; 48 h incubation) was 0% and the inhibition at 0.19 µg/mL (Candida krusei ATCC 6258; 24 h incubation) was 0%. It also gave an inhibition at 0.19 µg/mL (Candida krusei ATCC 6258; 48 h incubation) of 0%, an inhibition at 0.39 µg/mL (Candida krusei ATCC 6258; 24 h incubation) of 0% and an inhibition at 0.39 µg/mL (Candida krusei ATCC 6258; 48 h incubation) of 0%. The inhibition at 0.78 µg/mL (Candida krusei ATCC 6258; 24 h incubation) was 0%, the inhibition at 0.78 µg/mL (Candida krusei ATCC 6258; 48 h incubation) was 0% and the inhibition at 1.56 µg/mL (Candida krusei ATCC 6258; 24 h incubation) was 0%. For the same compound, the inhibition at 1.56 µg/mL (Candida krusei ATCC 6258; 48 h incubation) was 0%, the inhibition at 3.12 µg/mL (Candida krusei ATCC 6258; 24 h incubation) was 9% and the inhibition at 3.12 µg/mL (Candida krusei ATCC 6258; 48 h incubation) was 0%. For the same compound, the inhibition at 6.25 µg/mL (Candida krusei ATCC 6258; 24 h incubation) was 79%, the inhibition at 6.25 µg/mL (Candida krusei ATCC 6258; 48 h incubation) was 31.2% and the inhibition at 12.5 µg/mL (Candida krusei ATCC 6258; 24 h incubation) was 91%. For the same compound, the inhibition at 12.5 µg/mL (Candida krusei ATCC 6258; 48 h incubation) was 83%, the inhibition at 25 µg/mL (Candida krusei ATCC 6258; 24 h incubation) was 100% and the inhibition at 25 µg/mL (Candida krusei ATCC 6258; 48 h incubation) was 88.5%. The inhibition at 50 µg/mL (Candida krusei ATCC 6258; 24 h incubation) was 100%, the inhibition at 50 µg/mL (Candida krusei ATCC 6258; 48 h incubation) was 92.9% and the IC50 (Candida krusei ATCC 6258; 24 h of incubation) was 6.25 µg/mL (≈ 12.2 µM). It also gave an MIC (Candida krusei ATCC 6258; 24 h of incubation, 100% of growth inhibition) of 25 µg/mL (≈ 48.9 µM), an inhibition at 0.09 µg/mL ([1]; 24 h incubation) of 0% and an inhibition at 0.09 µg/mL ([1]; 48 h incubation) of 0%. It also gave an inhibition at 0.19 µg/mL ([1]; 24 h incubation) of 5.5%, an inhibition at 0.19 µg/mL ([1]; 48 h incubation) of 0% and an inhibition at 0.39 µg/mL ([1]; 24 h incubation) of 11.4%. It also gave an inhibition at 0.39 µg/mL ([1]; 48 h incubation) of 0%, an inhibition at 0.78 µg/mL ([1]; 24 h incubation) of 15.5% and an inhibition at 0.78 µg/mL ([1]; 48 h incubation) of 0%. It also gave an inhibition at 1.56 µg/mL ([1]; 24 h incubation) of 28%, an inhibition at 1.56 µg/mL ([1]; 48 h incubation) of 0% and an inhibition at 3.12 µg/mL ([1]; 24 h incubation) of 31%. For the same compound, the inhibition at 3.12 µg/mL ([1]; 48 h incubation) was 0%, the inhibition at 6.25 µg/mL ([1]; 24 h incubation) was 49.3% and the inhibition at 6.25 µg/mL ([1]; 48 h incubation) was 0%. For the same compound, the inhibition at 12.5 µg/mL ([1]; 24 h incubation) was 66.2%, the inhibition at 12.5 µg/mL ([1]; 48 h incubation) was 18.5% and the inhibition at 25 µg/mL ([1]; 24 h incubation) was 61.4%. It also gave an inhibition at 25 µg/mL ([1]; 48 h incubation) of 44%, an inhibition at 50 µg/mL ([1]; 24 h incubation) of 59% and an inhibition at 50 µg/mL ([1]; 48 h incubation) of 57%. It also gave an IC50 ([1]; 24 h of incubation) of 6.25 µg/mL (≈ 12.2 µM), an inhibition at 0.09 µg/mL ([2]; 48 h incubation) of 0% and an inhibition at 0.09 µg/mL ([2]; 72 h incubation) of 0%. It also gave an inhibition at 0.19 µg/mL ([2]; 48 h incubation) of 0%, an inhibition at 0.19 µg/mL ([2]; 72 h incubation) of 0% and an inhibition at 0.39 µg/mL ([2]; 48 h incubation) of 0%. The inhibition at 0.39 µg/mL ([2]; 72 h incubation) was 0%, the inhibition at 0.78 µg/mL ([2]; 48 h incubation) was 0% and the inhibition at 0.78 µg/mL ([2]; 72 h incubation) was 0%. For the same compound, the inhibition at 1.56 µg/mL ([2]; 48 h incubation) was 0%, the inhibition at 1.56 µg/mL ([2]; 72 h incubation) was 0% and the inhibition at 3.12 µg/mL ([2]; 48 h incubation) was 23.8%. The inhibition at 3.12 µg/mL ([2]; 72 h incubation) was 0%, the inhibition at 6.25 µg/mL ([2]; 48 h incubation) was 32% and the inhibition at 6.25 µg/mL ([2]; 72 h incubation) was 0%. The inhibition at 12.5 µg/mL ([2]; 48 h incubation) was 47.3%, the inhibition at 12.5 µg/mL ([2]; 72 h incubation) was 0% and the inhibition at 25 µg/mL ([2]; 48 h incubation) was 65.3%. For the same compound, the inhibition at 25 µg/mL ([2]; 72 h incubation) was 0%, the inhibition at 50 µg/mL ([2]; 48 h incubation) was 63.8% and the inhibition at 50 µg/mL ([2]; 72 h incubation) was 0%. The IC50 ([2]; after 48 h) was 25 µg/mL (≈ 48.9 µM), the IC50 ([2]; after 72 h) was over 50 µg/mL and the “LD 50” value [3] was 24.46 ± 2.51 µg/mL and 24.46 µg/mL. For the same compound, the “LD 50” value [4] was 46.83 ± 1.55 µg/mL and 46.83 µg/mL.
